Data: patent US20260285850A1, “SUBSTITUTED OXAZOLIDINONES AND IMIDAZOLINONES AS HERBICIDES” (FMC CORPORATION, priority 2023, published 2026)

Tests used:
Format in all cases: in vivo
[1] = tested on: corn (Zea mays); assay: Test A preemergence soil spray, visual injury rating 0-100; conditions: 10 days; for Corn plant response rating: 31 g ai/ha, 0 to 100 scale; for Corn plant response rating (0 to 100 scale): 125 g ai/ha, 0 = no effect, 100 = complete control
Text: (§1) Seeds of plant species selected from barnyardgrass (Echinochloa crus-galli), blackgrass (Alopecurus myosuroides), corn (Zea mays), foxtail, giant (giant foxtail, Setaria faberi), green foxtail (Setaria viridis), goosegrass (Eleusine indica), kochia (Bassia scoparia), oat, wild (wild oat, Avena fatua), palmer (palmer amaranth, palmer pigweed, Amaranthus palmeri), ragweed (common ragweed, Ambrosia artemisiifolia), ryegrass, Italian (italian ryegrass, Lolium multiflorum), soybean (Glycine max) and wheat (Triticum aestivum) were planted into a blend of loam soil and sand and treated preemergence with a directed soil spray using test chemicals formulated in a non-phytotoxic solvent mixture which included a surfactant.
(§2) At the same time, plants selected from these crops and weed species and also galium (catchweed bedstraw, Galium aparine) and horseweed (Erigeron canadensis) were planted in pots containing the same blend of loam soil and sand and treated with postemergence applications of test chemicals formulated in the same manner. Plants ranged in height from 2 to 10 cm and were in the one- to two-leaf stage for the postemergence treatment. Treated plants and untreated controls were maintained in a greenhouse for 10 days, after which time all treated plants were compared to untreated controls and visually evaluated for injury. Plant response ratings, summarized in Table A, are based on a 0 to 100 scale where 0 is no effect and 100 is complete control. A dash (-) response means no test result.

[2] = tested on: kochia (Bassia scoparia); assay: as above; conditions: 10 days; for Kochia plant response rating: 31 g ai/ha, 0 to 100 scale; for Kochia plant response rating (0 to 100 scale): 125 g ai/ha, 0 = no effect, 100 = complete control
Text: as §1, §2

[3] = tested on: ragweed (common ragweed, Ambrosia artemisiifolia); assay: as above; conditions: 10 days; for Ragweed plant response rating: 31 g ai/ha, 0 to 100 scale; for Ragweed plant response rating (0 to 100 scale): 125 g ai/ha, 0 = no effect, 100 = complete control
Text: as §1, §2

[4] = tested on: soybean (Glycine max); assay: as above; conditions: 10 days; for Soybean plant response rating: 31 g ai/ha, 0 to 100 scale; for Soybean plant response rating (0 to 100 scale): 125 g ai/ha, 0 = no effect, 100 = complete control
Text: as §1, §2

[5] = tested on: blackgrass (Alopecurus myosuroides); assay: as above; conditions: 10 days; for Blackgrass plant response rating: 31 g ai/ha, 0 to 100 scale; for Blackgrass plant response rating (0 to 100 scale): 125 g ai/ha, 0 = no effect, 100 = complete control
Text: as §1, §2

[6] = tested on: ryegrass, Italian (italian ryegrass, Lolium multiflorum); assay: as above; conditions: 10 days; for Ryegrass, Italian plant response rating: 31 g ai/ha, 0 to 100 scale; for Ryegrass, Italian plant response rating (0 to 100 scale): 125 g ai/ha, 0 = no effect, 100 = complete control
Text: as §1, §2

[7] = tested on: oat, wild (wild oat, Avena fatua); assay: as above; conditions: 10 days; for Oat, Wild plant response rating: 31 g ai/ha, 0 to 100 scale; for Oat, Wild plant response rating (0 to 100 scale): 125 g ai/ha, 0 = no effect, 100 = complete control
Text: as §1, §2

[8] = tested on: palmer (palmer amaranth, palmer pigweed, Amaranthus palmeri); assay: as above; conditions: 10 days; for Amaranth, Palmer (Pigweed, Palmer) plant response rating: 31 g ai/ha, 0 to 100 scale; for Amaranth, Palmer plant response rating (0 to 100 scale): 125 g ai/ha, 0 = no effect, 100 = complete control
Text: as §1, §2

[9] = tested on: barnyardgrass (Echinochloa crus-galli); assay: as above; conditions: 10 days; for Barnyardgrass plant response rating: 31 g ai/ha, 0 to 100 scale; for Barnyardgrass plant response rating (0 to 100 scale): 125 g ai/ha, 0 = no effect, 100 = complete control
Text: as §1, §2

[10] = tested on: wheat (Triticum aestivum); assay: as above; conditions: 10 days; for Wheat plant response rating: 31 g ai/ha, 0 to 100 scale; for Wheat plant response rating (0 to 100 scale): 125 g ai/ha, 0 = no effect, 100 = complete control
Text: as §1, §2

[11] = tested on: corn (Zea mays); assay: Test A postemergence application, visual injury rating 0-100; conditions: Postemergence
Text: as §1, §2

[12] = tested on: kochia (Bassia scoparia); assay: as above; conditions: Postemergence
Text: as §1, §2

[13] = tested on: ragweed (common ragweed, Ambrosia artemisiifolia); assay: as above; conditions: Postemergence
Text: as §1, §2

[14] = tested on: galium (catchweed bedstraw, Galium aparine); assay: as above; conditions: Postemergence
Text: as §1, §2

[15] = tested on: horseweed (Erigeron canadensis); assay: as above; conditions: Postemergence
Text: as §1, §2

[16] = tested on: soybean (Glycine max); assay: as above; conditions: Postemergence
Text: as §1, §2

[17] = tested on: blackgrass (Alopecurus myosuroides); assay: as above; conditions: Postemergence
Text: as §1, §2

[18] = tested on: ryegrass, Italian (italian ryegrass, Lolium multiflorum); assay: as above; conditions: Postemergence
Text: as §1, §2

[19] = tested on: oat, wild (wild oat, Avena fatua); assay: as above; conditions: Postemergence
Text: as §1, §2

[20] = tested on: palmer (palmer amaranth, palmer pigweed, Amaranthus palmeri); assay: as above; conditions: Postemergence
Text: as §1, §2

[21] = tested on: barnyardgrass (Echinochloa crus-galli); assay: as above; conditions: Postemergence
Text: as §1, §2

[22] = tested on: wheat (Triticum aestivum); assay: as above; conditions: Postemergence
Text: as §1, §2

[23] = 31 g ai/ha, greenhouse 10 days, 0 no effect, 100 complete control
[24] = 125 g ai/ha, 10 days, 0 is no effect, 100 is complete control

CCS(=O)(=O)NC(=O)C1C=CC(NC(=O)C2(C)CN(c3cc(Cl)cc(Cl)c3)C(=O)O2)C1 (centres unmarked) [Compound 83]
100: Amaranth, Palmer plant response rating (0 to 100 scale) [8]
0: Corn plant response rating [1] | Kochia plant response rating [2] | Ragweed plant response rating [3] | Blackgrass plant response rating [5] | Oat, Wild plant response rating [7] | Wheat plant response rating [10]
20: Ragweed plant response rating (0 to 100 scale) [3] | Corn plant response rating (0 to 100 scale) [11, 23] | Horseweed plant response rating (0 to 100 scale) [15, 23] | Soybean plant response rating (0 to 100 scale) [16, 23]
80: Ryegrass, Italian plant response rating (0 to 100 scale) [6] | Ragweed plant response rating (0 to 100 scale) [13, 24] | Galium plant response rating (0 to 100 scale) [14, 23] | Galium plant response rating (0 to 100 scale) [14, 24] | Oat, Wild plant response rating (0 to 100 scale) [19, 23] | Amaranth, Palmer / Pigweed, Palmer plant response rating (0 to 100 scale) [20, 23]
30: Barnyardgrass plant response rating [9]
10: Soybean plant response rating (0 to 100 scale) [4]
40: Soybean plant response rating [4] | Blackgrass plant response rating (0 to 100 scale) [5]
60: Corn plant response rating (0 to 100 scale) [1] | Ryegrass, Italian plant response rating [6] | Oat, Wild plant response rating (0 to 100 scale) [7] | Wheat plant response rating (0 to 100 scale) [10] | Ragweed plant response rating (0 to 100 scale) [13, 23] | Soybean plant response rating (0 to 100 scale) [16, 24] | Blackgrass plant response rating (0 to 100 scale) [17, 23] | Ryegrass, Italian plant response rating (0 to 100 scale) [18, 23]
90: Kochia plant response rating (0 to 100 scale) [2] | Corn plant response rating (0 to 100 scale) [11, 24] | Blackgrass plant response rating (0 to 100 scale) [17, 24] | Oat, Wild plant response rating (0 to 100 scale) [19, 24] | Amaranth, Palmer / Pigweed, Palmer plant response rating (0 to 100 scale) [20, 24] | Barnyardgrass plant response rating (0 to 100 scale) [21, 23] | Barnyardgrass plant response rating (0 to 100 scale) [21, 24] | Wheat plant response rating (0 to 100 scale) [22, 23] | Wheat plant response rating (0 to 100 scale) [22, 24]
70: Amaranth, Palmer (Pigweed, Palmer) plant response rating [8] | Barnyardgrass plant response rating (0 to 100 scale) [9] | Kochia plant response rating (0 to 100 scale) [12, 23] | Kochia plant response rating (0 to 100 scale) [12, 24] | Horseweed plant response rating (0 to 100 scale) [15, 24] | Ryegrass, Italian plant response rating (0 to 100 scale) [18, 24]

CC1(C(=O)NC2C=CC(C(=O)NS(=O)(=O)C3CC3)C2)CN(c2cc(Cl)cc(Cl)c2)C(=O)O1 (centres unmarked) [Compound 85]
30: Corn plant response rating (0 to 100 scale) [1] | Ragweed plant response rating [3] | Ragweed plant response rating (0 to 100 scale) [13, 23]
10: Soybean plant response rating (0 to 100 scale) [4]
70: Kochia plant response rating (0 to 100 scale) [12, 24] | Ryegrass, Italian plant response rating (0 to 100 scale) [18, 24]
90: Kochia plant response rating (0 to 100 scale) [2] | Amaranth, Palmer plant response rating (0 to 100 scale) [8] | Barnyardgrass plant response rating (0 to 100 scale) [9] | Wheat plant response rating (0 to 100 scale) [10] | Corn plant response rating (0 to 100 scale) [11, 24] | Oat, Wild plant response rating (0 to 100 scale) [19, 24] | Amaranth, Palmer / Pigweed, Palmer plant response rating (0 to 100 scale) [20, 24] | Barnyardgrass plant response rating (0 to 100 scale) [21, 23] | Barnyardgrass plant response rating (0 to 100 scale) [21, 24] | Wheat plant response rating (0 to 100 scale) [22, 24]
80: Ryegrass, Italian plant response rating (0 to 100 scale) [6] | Amaranth, Palmer (Pigweed, Palmer) plant response rating [8] | Galium plant response rating (0 to 100 scale) [14, 24] | Blackgrass plant response rating (0 to 100 scale) [17, 24] | Oat, Wild plant response rating (0 to 100 scale) [19, 23] | Wheat plant response rating (0 to 100 scale) [22, 23]
40: Soybean plant response rating (0 to 100 scale) [16, 23] | Amaranth, Palmer / Pigweed, Palmer plant response rating (0 to 100 scale) [20, 23]
50: Oat, Wild plant response rating (0 to 100 scale) [7] | Kochia plant response rating (0 to 100 scale) [12, 23] | Galium plant response rating (0 to 100 scale) [14, 23]
20: Kochia plant response rating [2] | Ragweed plant response rating (0 to 100 scale) [3] | Blackgrass plant response rating (0 to 100 scale) [5] | Oat, Wild plant response rating [7] | Barnyardgrass plant response rating [9] | Corn plant response rating (0 to 100 scale) [11, 23]
0: Corn plant response rating [1] | Soybean plant response rating [4] | Blackgrass plant response rating [5] | Wheat plant response rating [10]
60: Ryegrass, Italian plant response rating [6] | Ragweed plant response rating (0 to 100 scale) [13, 24] | Horseweed plant response rating (0 to 100 scale) [15, 23] | Horseweed plant response rating (0 to 100 scale) [15, 24] | Soybean plant response rating (0 to 100 scale) [16, 24] | Blackgrass plant response rating (0 to 100 scale) [17, 23] | Ryegrass, Italian plant response rating (0 to 100 scale) [18, 23]

CC1(C(=O)NC2C=CC(C(=O)NS(=O)(=O)c3ccccc3)C2)CN(c2cc(Cl)cc(Cl)c2)C(=O)O1 (centres unmarked) [Compound 86]
70: Amaranth, Palmer (Pigweed, Palmer) plant response rating [8] | Galium plant response rating (0 to 100 scale) [14, 23] | Blackgrass plant response rating (0 to 100 scale) [17, 24] | Ryegrass, Italian plant response rating (0 to 100 scale) [18, 24]
50: Horseweed plant response rating (0 to 100 scale) [15, 24]
30: Barnyardgrass plant response rating [9] | Blackgrass plant response rating (0 to 100 scale) [17, 23]
100: Corn plant response rating (0 to 100 scale) [11, 24]
10: Ragweed plant response rating [3]
20: Soybean plant response rating (0 to 100 scale) [16, 23]
0: Corn plant response rating [1] | Soybean plant response rating [4] | Blackgrass plant response rating [5] | Ryegrass, Italian plant response rating [6] | Oat, Wild plant response rating [7] | Wheat plant response rating [10]
90: Corn plant response rating (0 to 100 scale) [11, 23] | Kochia plant response rating (0 to 100 scale) [12, 24] | Oat, Wild plant response rating (0 to 100 scale) [19, 24] | Amaranth, Palmer / Pigweed, Palmer plant response rating (0 to 100 scale) [20, 23] | Amaranth, Palmer / Pigweed, Palmer plant response rating (0 to 100 scale) [20, 24] | Barnyardgrass plant response rating (0 to 100 scale) [21, 23] | Barnyardgrass plant response rating (0 to 100 scale) [21, 24]
40: Kochia plant response rating [2] | Horseweed plant response rating (0 to 100 scale) [15, 23]
80: Kochia plant response rating (0 to 100 scale) [12, 23] | Ragweed plant response rating (0 to 100 scale) [13, 24] | Galium plant response rating (0 to 100 scale) [14, 24] | Wheat plant response rating (0 to 100 scale) [22, 24]
60: Ragweed plant response rating (0 to 100 scale) [13, 23] | Soybean plant response rating (0 to 100 scale) [16, 24] | Ryegrass, Italian plant response rating (0 to 100 scale) [18, 23] | Oat, Wild plant response rating (0 to 100 scale) [19, 23] | Wheat plant response rating (0 to 100 scale) [22, 23]
